Laboratory results from patent publication US7030162B2, “Treatment of migraine headache” (POZEN Inc., priority 1996, dated 2006).
Structures can show the parent of a compound that is named as a salt.

Columns and labels:
[1] = cited from earlier work; for half-life: pharmacokinetic half-life; for time of peak plasma concentrations: after oral dosing, normal subjects
[2] = human, in vivo
Description: Twenty-four healthy volunteers (14 females and 10 males), aged 20–55 years, received each of the four treatments. […] Standard pharmacokinetic parameters were calculated, including maximum plasma concentrations over the entire sampling phase (Cmax), time to attain maximal plasma concentrations (Tmax), and area under the plasma concentration-time curve (AUCI-time 0 to infinity).

[3] = naproxen sodium: water of neutral pH; cited from earlier work
migraine patients = assay: Earlier phase II study of metoclopramide on pain variables; assay type: in vivo, human

Cc1ccc(-c2cc(C(F)(F)F)nn2-c2ccc(S(N)(=O)=O)cc2)cc1 [celecoxib]
time to peak plasma levels ([1]; in vivo): approximately 3 hours
half-life [1]: approximately 11 hours

CCc1cccc2c3c([nH]c12)C(CC)(CC(=O)O)OCC3 (stereo not shown) [etodolac]
half-life [1]: about 7 hours

CC(C(=O)O)c1cccc(C(=O)c2ccccc2)c1 (stereo not shown) [ketoprofen]
time to peak plasma levels ([1]; in vivo): one-half to 2

CC(C(=O)O)c1ccc(-c2ccccc2)c(F)c1 (stereo not shown) [flurbiprofen]
half-life [1]: about 6 hours

O=C(c1ccccc1)c1ccc2n1CCC2C(=O)O (stereo not shown) [ketorolac]
half-life [1]: 8 to 9 h

CC(=O)Nc1ccc(O)cc1 [acetaminophen]
time of peak plasma concentrations [1]: about 1 hour

O=C(O)CCc1nc(-c2ccccc2)c(-c2ccccc2)o1 [oxaprozin]
half-life [1]: 42 to 50 h

CCN(CC)CCNC(=O)c1cc(Cl)c(N)cc1OC [Metoclopramide hydrochloride, metoclopramide hydrochloride]
tolerability [2]: well tolerated
solubility in water [3]: freely soluble
effect on pain variables (migraine patients): without significant effect

Cc1ccc(Cl)c(Nc2ccccc2C(=O)O)c1Cl [meclofenamate]
time to peak plasma levels ([1]; in vivo): 0.5 to 1 h

COc1ccc2cc([C@H](C)C(=O)O)ccc2c1 [naproxen]
tolerability [2]: well tolerated

Cc1cccc(Nc2ccccc2C(=O)O)c1C [mefenamic acid]
half-life [1]: up to 4 hours

CC(=O)Oc1ccccc1C(=O)O [aspirin]
time of peak plasma concentrations [1]: about 1 hour
plasma half life ([1]; in vivo): very short
